According to patent US6624119B1, “3-[Benz(ox/thi)azol-7-yl]-1h-pyrimidine-2,4-diones” (BASF Aktiengesellschaft, priority 1998, dated 2003):

How the values were obtained:
Assay in all cases: greenhouse herbicidal test, post-emergence
Format in all cases: in vivo
[1] = tested on: Abutilon theophrasti; conditions: Abutilon theophrasti (velvet leaf), application rates 15.6 or 7.8 kg/ha a.s., 2 to 4 weeks
From the text: (§1) The growing containers used were plastic pots containing loamy sand with approximately 3.0% of humus as the substrate. The seeds of the test plants were sown separately for each species.
(§2) For the post-emergence treatment, the test plants were first grown to a plant height of 3 to 15 cm, depending on the growth habit, and only then treated with the active ingredients which had been suspended or emulsified in water. The test plants were either sown directly and grown in the same containers or first grown separately as seedlings and transplanted into the test containers a few days prior to treatment. The rate of application for the post-emergence treatment was only 15.6 or […] of a.s. (active substance).
(§3) Depending on the species, the plants were kept at 10-25° C. or 20-35° C. The test period extended over 2 to 4 weeks. During this time, the plants were tended, and their response to the individual treatments was evaluated.
(§4) Evaluation was carried out using a scale from 0 to 100. 100 means no emergence of the plants or complete destruction of at least the aerial parts, and 0 means no damage or normal course of growth.
(§5) The plants used in the greenhouse experiments belonged to the following species: […]

[2] = tested on: Amaranthus retroflexus; conditions: Amaranthus retroflexus (redroot pigweed), application rates 15.6 or 7.8 kg/ha a.s., 2 to 4 weeks
From the text: as §1, §2, §3, §4, §5

[3] = tested on: Chenopodium album; conditions: Chenopodium album (lambsquarters), application rates 15.6 or 7.8 kg/ha a.s., 2 to 4 weeks
From the text: as §1, §2, §3, §4, §5

[4] = tested on: Solanum nigrum; conditions: Solanum nigrum (black nightshade), application rates 15.6 or 7.8 kg/ha a.s., 2 to 4 weeks
From the text: as §1, §2, §3, §4, §5

Measured: efficacy (complete destruction; scale 0 to 100)

Cn1c(C(F)(F)F)cc(=O)n(-c2c(F)cc(Cl)c3nc(C4CCCC4)oc23)c1=O [Ia.3, 3-[4-Chloro-2-cyclopentyl-6-fluorobenzoxazol-7-yl]-1-methyl-6-trifluoromethyl-2,4-(1H,3H)-pyrimidinedione]
100%: all assays above
